Data published in US20260083674A1, “OXAZOLIDINONE LIPOSOME COMPOSITIONS” (priority 2021, published 2026).
In brackets after ≈: the same amount, converted by molar mass. Like-named read-outs stand apart in the source and are kept apart here.

Assays:
M.tb H37Rv = assay: Broth microdilution MIC with Alamar blue endpoint (MABA), M.tb H37Rv; format: cell-based; settings: Mycobacterium tuberculosis
[1] = test system: mitochondrial protein synthesis vs H37Rv M. tuberculosis; assay: MPS selectivity index (MPS IC50 / MIC H37Rv)
[2] = test system: methicillin resistant Staphylococcus aureus (MRSA) ATCC 43300; assay: MIC against MRSA strain ATCC 43300; settings: read-out: MRSA MIC, strain ATCC 43300
[3] = test system: methicillin resistant Staphylococcus aureus (MRSA) 880 NR-49120; assay: MIC against MRSA strain 880 NR-49120; settings: read-out: MRSA MIC, strain 880 NR-49120
[4] = test system: methicillin resistant Staphylococcus aureus (MRSA) ATCC BAA-1556; assay: MIC against MRSA strain ATCC BAA-1556; settings: ATCCBAA1556|MRSA
[5] = test system: African green monkey kidney (Vero; ATCC #CCL81) cells; assay: In vitro cytotoxicity (PrestoBlue cell viability), Vero cells; settings: Chlorocebus sabaeus, 72 h, read-out: Cell viability IC50, VERO
Procedure: (§1) Data is reported out as the full cell viability curve, as well as a calculation of the actual IC50 value for each compound.
(§2) Adherent cells were grown to ˜80% confluency. […] The cell density was determined using a hemocytometer.
(§3) These compounds were provided as sterile aqueous solutions of HCl salts with a concentration of 5 mg/ml. For making dilutions, each drug stock was warmed to room temperature, vortexed and was visually inspected for precipitation. If solid drug was present, the stock was heated on a 60° C. water bath and then allowed to cool to near room temperature. Based on the treatment concentrations, 20× working stocks were made by serial dilution.
(§4) At the end of the compound incubation period, replace the media in each well with 100 μl of 1× PrestoBlue Cell Viability Reagent (ThermoFisher Cat #A13261). Incubate the plate at 37° C. in a humidified incubator with 5% CO2 30 min to 2 h. […] Read fluorescence with 560 nm excitation and 590 nm emission using SpectraMax M5 plate reader (Molecular Devices). Correct background by subtracting the RFU of the control containing only the culture medium (background control well) from all sample readings. Calculate the percentage of cytotoxicity using the formula below:
(§5) The IC50 was determined using GraphPad Prism using the following formula:

[6] = test system: human hepatocyte/liver (HepG2; ATCC #HB8065) cells; assay: In vitro cytotoxicity (PrestoBlue cell viability), HepG2 cells; settings: HepG2, 72 h, read-out: Cell viability IC50, HepG2
Procedure: as §1, §2, §3, §4, §5

[7] = test system: mitochondrial protein synthesis (COX-1/SDH-A) in H9C2 rat heart myoblast cells; assay: Inhibition of mitochondrial protein synthesis (MitoBiogenesis in-cell ELISA, COX-1/SDH-A); settings: H9c2, 120 h, read-out: MPS IC50
Procedure: Inhibition of mitochondrial protein synthesis was determined using a colorimetric MitoBiogenesis™ in-cell ELISA kit from AbCam (Catalog #ab11021), as per the manufacturer's instructions. […] The levels of two mitochondrial proteins were measured simultaneously, including the mitochondrial DNA-encoded subunit I of Complex IV (COX-1) and the nuclear DNA-encoded 70 kDa subunit of Complex II (SDH-A). The H9C2 rat BDIX heart myoblast cell line was used in these studies in a 384 well plate assay format. Cells were grown in DMEM media with 10% FBS and 1×Glutamine at 37° C. and 5% CO2. […] Ten concentrations of each compound, starting at a high concentration of 200 μM and including nine 3-fold dilutions and one replicate per condition, were added to the cells in 2.5 μl and incubated with the cells for five days at 37° C. and 5% CO2.
COX-I and SDH-A signals were plotted as a ratio of COX-1/SDH-A against concentration of each compound, and the IC50 were calculated for each of the 9 investigational compounds and two controls.

[8] = test system: M. tuberculosis Erdman or H37Rv vs VERO or HepG2 cell lines; assay: Selectivity Index (IC50 mammalian cells / MIC bacteria); set-up: species or system Mycobacterium tuberculosis; settings: for Selectivity Index (SI) Erd/VERO: IC50 VERO / MIC Erdman; for Selectivity Index (SI) Erd/HepG2: IC50 HepG2 / MIC Erdman; for Selectivity Index (SI) H37Rv/HepG2: IC50 HepG2 / MIC H37Rv; for Selectivity Index (SI) H37Rv/VERO: IC50 VERO / MIC H37Rv
[9] = Liposome loading: encapsulated drug-to-lipid ratio and encapsulation efficiency; format: physicochemical
Procedure: 1. The lipid components (phospholipid (PhL), cholesterol, and optionally—a PEG-lipid derivative and/or a lipid fluorescent label were combined in an amount of 100% ethanol equal to one-tenth of a volume (V) calculated to obtain lipid suspension with about 60 mM phospholipid and stirred at the temperature of 65-68° C. until complete dissolution of the lipids.
2. The ethanolic lipid solution was combined with volume V of the trapping agent solution (0.25-0.5 M ammonium sulfate or 1 N triethylammonium sucrose octasulfate) upon stirring at 65-68° C. until a uniform suspension was obtained.
3. The lipid suspension was extruded at least three times through a stack of track-etched polycarbonate membranes, typically, two or four membranes with the nominal pore size of 100 nm and one with the nominal pore size 200 nm (Whatman Nuclepore, USA), using a thermobarrel extruder (Lipex, Canada) at 65-68° C., at the pressure of 400-450 psi. When two 100-nm membranes were used in a 100-ml Lipex extruder, the extrusion pressure was typically 260-300 psi. The resulting liposomes have Z-average particle size (diameter) Xz between about 80 and about 130 nm, and PDI less than 0.1.
5. An aliquot of the extruded, filtered liposome suspension so made was chromatographed on a gravity-fed Sepharose CL-4B size exclusion column (eluent-Type 1 water), to purify the liposomes from extraliposomal trapping agent. The purified liposomes were collected near the void volume fraction of the column. For a scale-up studies, this step was performed using a tangential flow filtration (TFF) on a hollow fiber cartridge (Repligen Spectrum MicroKros PS or mPES membrane with MWCO of 500 KDa) effecting 8-10 volume exchanges (or until the conductivity of the liposome suspension dropped below 200 μS/cm) with Type 1 or USP “Water for injection” endotoxin-free water.
6. The lipid concentration in a purified extruded liposome preparation was determined using HPLC with UV detection, by measuring the concentration of cholesterol and correcting for the known phospholipid/cholesterol molar ratio. Alternatively, a spectrophotometric blue phosphomolybdate method was used to directly quantify the phospholipid content.
7. The drug was dissolved in Type 1 or endotoxin-free pure water in the form of a hydrochloric acid salt (e.g., AKG-3 and AKG-5 were used as monohydrochloride, AKG-28 and AKG-29 were used as dihydrochloride) at the concentration of 5-20 mg/ml of the drug. To the drug prepared in free base form (e.g., AKG-16, AKG-38), an equivalent amount of HCl was added. If necessary, pH of the solution was brought between pH 2.5-5.5, using 1 N NaOH, HCL, or tris(hydroxymethyl)aminomethane (Tris)-base solution, and the solution was filtered through a 0.2-micron PES filter under positive pressure. When necessary, the drug concentration in the stock solution so made was verified by HPLC with UV detection at 305 nm.
8. Purified liposomes of step 5 and the drug stock solution were combined in the presence of an osmotic agent (typically dextrose) and water in the amounts necessary to provide a desired drug-to-phospholipid (DL) ratio, the drug concentration in the range 1.5-3.3 mg/ml, at the osmolality equal to the measured osmolality of the trapping agent solution of step 2. Optionally, a buffer at a desired pH (typically pH 4 to pH 7) was added. In some instances, the amount of added osmotic agent (e.g., dextrose at about 45 g/L) provided osmolality less that the measured osmolality of the trapping agent solution, and the loading was effected at 6-8 mg/ml of the drug.
9. The drug-liposome mixture was incubated with constant agitation at 65-68° C. for about 15-20 min and quickly chilled on ice. After 5-10 min, the mixture was allowed to reach ambient temperature an adjusted to 0.1M NaCl by adding a calculated amount of 3 M NaCl stock solution.
10. […] The liposome fractions were collected near the column void volume. […]

M.tb Erdman = assay: Broth microdilution MIC with Alamar blue endpoint (MABA), M.tb Erdman; format: cell-based, Mycobacterium tuberculosis; settings: for MIC: Mycobacterium tuberculosis, ERDMAN, broth microdilution, MABA/OD600
[10] = format: physicochemical
Procedure: To the resulting cake or syrup, water was added typically to the final 10 mg/ml, and complete dissolution was observed. […] Aqueous solubility of the compounds of the present disclosure is illustrated by the following observations of obtaining visually clear solutions: […]

[11] = test system: methicillin resistant Staphylococcus aureus (MRSA) ATCC BAA-1556; settings: cited from earlier work
[12] = read-out: MIC against the three MRSA strains
[13] = read-out: MRSA MIC, strain ATCC BAA-1556
[14] = 1 N TEA-SOS, DL0 750-1500 g/mol PhL
[15] = broth microdilution, MABA/OD600, read-out: Mycobacterium tuberculosis MIC, H37Rv

Compound | SI-MPS MPS/H37 [1] | IC50 [5] [µg/mL] | IC50 [6] [µg/mL] | Selectivity Index (SI) Erd/VERO [8] | MIC (M.tb Erdman) [µg/mL] | MIC (M.tb H37Rv; [15]) [µg/mL] | Selectivity Index (SI) H37Rv/HepG2 [8] | Selectivity Index (SI) H37Rv/VERO [8] | further results
CN(C)CCCn1nnc(-c2ccc(-c3ccc(N4C[C@H](CN)OC4=O)cc3F)cn2)n1.Cl (stereo in doubt) [AKG-30] | 2.02 | 110 | 18.9 |  |  |  |  |  | MIC (M.tb H37Rv; read-out: MIC (H37Rv)): 0.125 µg/mL; MIC [2]: > 50 µg/mL; MIC [3]: > 50 µg/mL; MIC [4, 12]: > 50 µg/mL; MIC [4, 13]: > 50 µg/mL; IC50 [7]: 0.252 µg/mL
CN(C)CCCC(=O)OC[C@H]1CN(c2ccc(-c3ccc(-c4nnn(C)n4)nc3)c(F)c2)C(=O)O1 [AKG-5] |  |  |  | 32.5 |  |  |  |  | Maximum encapsulated drug payload ([9]; 0.5 M AS, 0.5 mol % PEG): 627 g/mol PhL; Drug loading efficiency ([9]; 0.5 mol % PEG-DSG, 1N TEA-SOS, DL0 500 g/mol PhL (Example 8, no added buffer)): 101.3; Drug loading efficiency ([9]; 0.5 mol % PEG-DSG, […] AS, DL0 250 g/mol PhL): 98.5; Drug loading efficiency ([9]; 0.5 mol % PEG-DSG, […] AS, DL0 500 g/mol PhL): 97.7; loading efficiency at or near the maximum drug load [9, 14]: ≥ 96.0%; maximum drug load [9, 14]: 982-1197 g/mol PhL; Drug loading efficiency ([9]; 5 mol % PEG-DSG, 1N TEA-SOS, DL0 500 g/mol PhL): 99.3
CCN(CC)CCCNC[C@H]1CN(c2ccc(-c3ccc(-c4nnn(C)n4)nc3)c(F)c2)C(=O)O1 [AKG-8] |  |  |  |  | > 8 | > 8 |  |  | 
CCN(CC)CCNC[C@H]1CN(c2ccc(-c3ccc(-c4nnn(C)n4)nc3)c(F)c2)C(=O)O1 [AKG-9] |  | 139 (≈ 297 µM) | 28.1 (≈ 60 µM) | <17.4 | > 8 | > 8 | 3.5 | <17.4 | Selectivity Index (SI) Erd/HepG2 [8]: <3.5
CN(C)CCNc1ccc(-c2ccc(N3C[C@H](CO)OC3=O)cc2F)cn1 [AKG-12] |  | 89.1 (≈ 238 µM) | 67.6 (≈ 181 µM) | 22.3 | 4 (≈ 10.7 µM) | 4 (≈ 10.7 µM) | 16.9 | 22.3 | Selectivity Index (SI) Erd/HepG2 [8]: 16.9
CN(C)CCn1nnc(-c2ccc(-c3ccc(N4C[C@H](CO)OC4=O)cc3F)cn2)n1 [AKG-16] |  |  |  |  |  |  |  |  | Concentration % (w/w) of free base, visually clear solution [10]: 30.0 % (w/w); Maximum encapsulated drug payload ([9]; 0.5 M AS, 0.5 mol % PEG): 668-675 g/mol PhL; Maximum encapsulated drug payload ([9]; 0.5 M AS, 5 mol % PEG): 614-619 g/mol PhL; maximum drug load [9, 14]: 938-951 g/mol PhL
Cl.Cn1nnc(-c2ccc(-c3ccc(N4C[C@H](CNC(=O)CCN)OC4=O)cc3F)cn2)n1 [AKG-17] |  |  | 37.3 | >125 | 2 | 2 | 18.7 | >125 | Selectivity Index (SI) Erd/HepG2 [8]: 18.7
Cl.Cn1nnc(-c2ccc(-c3ccc(N4C[C@H](CNC(=O)CCCN)OC4=O)cc3F)cn2)n1 [AKG-18] |  | > 250 | 9.5 | >125 | 2 | 2 | 4.8 | >125 | Selectivity Index (SI) Erd/HepG2 [8]: 4.8
Cl.Cn1nnc(-c2ccc(-c3ccc(N4C[C@H](CNCCN)OC4=O)cc3F)cn2)n1 [AKG-19] |  | > 250 | 42.2 | >31.3 | > 8 | > 8 | 5.3 | >31.3 | Selectivity Index (SI) Erd/HepG2 [8]: 5.3
Cl.NCCn1nnnc1-c1ccc(-c2ccc(N3C[C@H](CO)OC3=O)cc2F)cn1 [AKG-22] | 2.37 |  |  |  |  |  |  |  | 
CN(C)CCn1nnc(-c2ccc(-c3ccc(N4C[C@H](CN)OC4=O)cc3F)cn2)n1 [AKG-28] |  |  |  |  |  |  |  |  | Concentration % (w/w) of free base, visually clear solution [10]: 7.3 % (w/w)
Cl.Cl.NCCn1nnc(-c2ccc(-c3ccc(N4C[C@H](CN)OC4=O)cc3F)cn2)n1 [AKG-29] | 32.80 | 110 | 74.4 |  | 0.25 |  |  |  | MIC [2]: > 50 µg/mL; MIC [3]: 50 µg/mL; MIC [4, 12]: > 50 µg/mL; MIC [4, 13]: 50 µg/mL
CCN(CC)CCCn1nnc(-c2ccc(-c3ccc(N4C[C@H](CN)OC4=O)cc3F)cn2)n1.Cl [AKG-31] |  | 112 | 13.2 |  | 0.5 | 0.5 | 26.4 | 223.0 | 
CC(=O)NC[C@H]1CN(c2ccc(-c3ccc(-c4nnn(CCN(C)C)n4)nc3)c(F)c2)C(=O)O1 [AKG-38] |  | ≥ 395 | 97 (≈ 207 µM) |  |  |  |  |  | Concentration % (w/w) of free base, visually clear solution [10]: 7.1 % (w/w); maximum drug load ([9]; 0.5 M AS, HSPC/Chol 3:2, 0.5 mol % PEG-DSG (Example 14)): 818-842 g/mol PhL; maximum drug load ([9]; 1 N TEA-SOS, HSPC/Chol 3:2, 0.5 mol % PEG-DSG (Example 14)): 989 g/mol PhL; drug load ([9]; 30 mol % cholesterol, 5 mol % PEG-DSG, 1 N TEA-SOS): 462.4 g/mol PhL; IC50 [7]: 0.041 µg/mL (≈ 0.0875 µM)
CCN(CC)CCn1nnc(-c2ccc(-c3ccc(N4C[C@H](CNC(C)=O)OC4=O)cc3F)cn2)n1 [AKG-39] | 0.12 |  |  |  |  |  |  |  | MIC, M. tuberculosis (Example 2) (M.tb Erdman; strain not given): 0.5 µg/mL (≈ 1.01 µM)
CCN(CC)CCCn1nnc(-c2ccc(-c3ccc(N4C[C@H](CNC(C)=O)OC4=O)cc3F)cn2)n1 [AKG-40] | 0.13 |  |  |  |  |  |  |  | 
Cn1nnc(-c2ccc(-c3ccc(N4C[C@H](CO)OC4=O)cc3F)cn2)n1 [Tedizolid, reference compound] | 0.57 |  |  |  |  |  |  |  | MIC described in U.S. Pat. No. 7,816,379 [11]: 0.5 µg/mL (≈ 1.35 µM)
